One experiment concerns the target T1, rat B1R (bradykinin receptor 1) (Rattus norvegicus, UniProt P97583).
T1 construct: expressed in transfected cells; host or cells: CHO K1 cells
T1 sequence (P97583 1-337): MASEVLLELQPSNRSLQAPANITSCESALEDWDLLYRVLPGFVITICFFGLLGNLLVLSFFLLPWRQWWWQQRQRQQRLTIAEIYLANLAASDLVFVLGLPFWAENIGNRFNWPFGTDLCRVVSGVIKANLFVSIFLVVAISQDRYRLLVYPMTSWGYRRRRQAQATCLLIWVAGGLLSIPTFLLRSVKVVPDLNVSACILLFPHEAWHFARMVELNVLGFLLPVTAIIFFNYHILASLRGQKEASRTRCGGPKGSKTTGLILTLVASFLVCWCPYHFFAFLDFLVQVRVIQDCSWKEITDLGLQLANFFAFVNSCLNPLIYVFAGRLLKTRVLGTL
As to the kind of experiment: FLIPR Ca2+ assay (Fluo-4) on CHO K1 cells stably transfected with the B1R gene of the rat (rB1R cells): % inhibition at 10 μM / IC50, agonist Des-Arg9-bradykinin. Format: cell-based. To be noted: CHO-K1, rat B1R. In outline:
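Loading with Fluo-4 occurs for 60 min at 37 °C, or alternatively in buffer A, before FLIPR measurement. Compounds are applied, incubated 10–20 min, and then the EC80 agonist is added. Antagonism appears as reduced peak Ca2+ signal relative to maximal inhibition.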
In general, inhibition refers to the relative decrease from the control value, in per cent. `CCC(C)C(=O)N(C)C1CCc2ccc(C(=O)N3CCC4(CC3)CCN(c3ccncc3)CC4)cc21` (centres unmarked) [IND_CC-416, N,2-Dimethyl-N-[6-(9-pyridin-4-yl-3,9-diazaspiro[5.5]undecane-3-carbonyl)-2,3-dihydro-1H-inden-1-yl]-butyramide]: the inhibition at 10 µM is 101%. Still for that read-out and setting: the figure for `COc1cccc(F)c1CN1CCC2(CC1)CCN(C(=O)c1ccc3c(c1)C(NC(=O)c1ccccc1Cl)CC3)C2` (centres unmarked) [IND_CC-546, 2-Chloro-N-[6-[8-[(2-fluoro-6-methoxy-phenyl)-methyl]-2,8-diazaspiro[4.5]decane-2-carbonyl]-2,3-dihydro-1H-inden-1-yl]-benzamide] is 99%; for `COc1ccc(C(=O)NC2CCc3ccc(C(=O)N4CCC5(CC4)CCN(c4ccncc4)CC5)cc32)c(F)c1` (centres unmarked) [IND_CC-297, 2-Fluoro-4-methoxy-N-[6-(9-pyridin-4-yl-3,9-diazaspiro[5.5]undecane-3-carbonyl)-2,3-dihydro-1H-inden-1-yl]-benzamide] it is 107%. The same measure, in the same setting: the figure for `COc1ccc(CN2CCC3(CC2)CCN(C(=O)c2ccc4c(c2)C(NC(=O)c2cc(C(F)(F)F)ccc2Cl)CC4)CC3)cc1F` (centres unmarked) [IND_CC-648, 2-Chloro-N-[6-[9-[(3-fluoro-4-methoxy-phenyl)-methyl]-3,9-diazaspiro[5.5]-undecane-3-carbonyl]-2,3-dihydro-1H-inden-1-yl]-5-(trifluoromethyl)benzamide] is 78%; for `Cn1nnc2cc(CN3CCC4(CC3)CCN(C(=O)c3ccc5c(c3)C(NC(=O)c3c(F)cccc3Cl)CC5)C4)ccc21` (centres unmarked) [IND_CC-776, 2-Chloro-6-fluoro-N-[6-[8-[(1-methyl-1H-benzotriazol-5-yl)-methyl]-2,8-diazaspiro[4.5]decane-2-carbonyl]-2,3-dihydro-1H-inden-1-yl]-benzamide] it is 99%. For the compound `Cc1cccc(Cl)c1C(=O)NC1CCc2ccc(C(=O)N3CCC4(CCN(Cc5c(C)noc5C)CC4)C3)cc21` (centres unmarked) [IND_CC-730, 2-Chloro-N-[6-[8-[(3,5-dimethyl-isoxazol-4-yl)-methyl]-2,8-diazaspiro-[4.5]decane-2-carbonyl]-2,3-dihydro-1H-inden-1-yl]-6-methyl-benzamide], the inhibition at 10 µM came to 75%. For the compound `O=C(NC1CCc2ccc(C(=O)N3CCC4(CCN(Cc5ccc(F)cc5F)CC4)CC3)cc21)c1cc(Cl)ccc1F` (centres unmarked) [IND_CC-629, 5-Chloro-N-[6-[9-[(2,4-difluoro-phenyl)-methyl]-3,9-diazaspiro[5.5]undecane-3-carbonyl]-2,3-dihydro-1H-inden-1-yl]-2-fluoro-benzamide], the inhibition at 10 µM stood at 71%. Still for that read-out and setting: then `O=C(NC1CCc2ccc(C(=O)N3CCC4(CCN(Cc5ccc6ncccc6c5)CC4)C3)cc21)c1c(F)cccc1Cl` (centres unmarked) [IND_CC-774, 2-Chloro-6-fluoro-N-[6-[8-(quinolin-6-yl-methyl)-2,8-diazaspiro[4.5]decane-2-carbonyl]-2,3-dihydro-1H-inden-1-yl]-benzamide], with 81%; and `O=C(NC1CCc2ccc(C(=O)N3CCC4(CCN(C(=O)Cc5ccc(Cl)cc5)CC4)C3)cc21)c1sccc1Cl` (centres unmarked) [IND_CC-586, 3-Chloro-N-[6-[8-[2-(4-chlorophenyl)-acetyl]-2,8-diazaspiro[4.5]decane-2-carbonyl]-2,3-dihydro-1H-inden-1-yl]-thiophene-2-carboxylic acid amide], with 76%.

`CN(C1CCc2ccc(C(=O)N3CCC4(CC3)CCN(c3ccncc3)CC4)cc21)S(=O)(=O)c1ccc(Cl)cc1Cl` (centres unmarked) [IND_CC-324, 2,4-Dichloro-N-methyl-N-[6-(9-pyridin-4-yl-3,9-diazaspiro[5.5]undecane-3-carbonyl)-2,3-dihydro-1H-inden-1-yl]-benzenesulfonic acid amide]: the inhibition at 10 µM came to 98%.

Take `N#Cc1ccc(CN2CCC3(CC2)CCN(C(=O)c2ccc4c(c2)C(N(C(=O)c2ccccc2Cl)C2CC2)CC4)C3)cc1` (centres unmarked) [IND_CC-539, 2-Chloro-N-[6-[8-[(4-cyano-phenyl)-methyl]-2,8-diazaspiro[4.5]decane-2-carbonyl]-2,3-dihydro-1H-inden-1-yl]-N-cyclopropyl-benzamide]: the inhibition at 10 µM amounted to 75%. Regarding `COc1ccc(CN2CCC3(CC2)CCN(C(=O)c2ccc4c(c2)C(N(C(=O)c2ccccc2Cl)C2CC2)CC4)C3)cc1F` (centres unmarked) [IND_CC-524, 2-Chloro-N-cyclopropyl-N-[6-[8-[(3-fluoro-4-methoxy-phenyl)-methyl]-2,8-diazaspiro[4.5]decane-2-carbonyl]-2,3-dihydro-1H-inden-1-yl]-benzamide], the inhibition at 10 µM amounted to 62%. Still for that read-out and setting: then `CCn1cc(CN2CCC3(CC2)CCN(C(=O)c2ccc4c(c2)C(NC(=O)c2cccc(Cl)c2Cl)CC4)CC3)c(C)n1` (centres unmarked) [IND_CC-752, 2,3-Dichloro-N-[6-[9-[(1-ethyl-3-methyl-1H-pyrazol-4-yl)-methyl]-3,9-diazaspiro[5.5]undecane-3-carbonyl]-2,3-dihydro-1H-inden-1-yl]-benzamide], with 69%; and `O=C(Nc1ccc(F)cc1F)N1CCC2(CC1)CCN(C(=O)c1ccc3c(c1)C(N(C(=O)c1ccccc1Cl)C1CC1)CC3)C2` (centres unmarked) [IND_CC-719, 2-[3-[(2-Chloro-benzoyl)-cyclopropyl-amino]-2,3-dihydro-1H-indene-5-carbonyl]-N-(2,4-difluoro-phenyl)-2,8-diazaspiro[4.5]decane-8-carboxylic acid amide], with 59%. Still for that read-out and setting: the figure for `N#Cc1cc(S(=O)(=O)N2CCC3(CCN(C(=O)c4ccc5c(c4)C(N(C(=O)c4ccccc4Cl)C4CC4)CC5)C3)CC2)ccc1F` (centres unmarked) [IND_CC-617, 2-Chloro-N-[6-[8-[(3-cyano-4-fluoro-phenyl)sulfonyl]-2,8-diazaspiro[4.5]-decane-2-carbonyl]-2,3-dihydro-1H-inden-1-yl]-N-cyclopropyl-benzamide] is 67%; for `O=C(NC1CCc2ccc(C(=O)N3CCC4(CC3)CCN(c3ccncc3)CC4)cc21)C1CCCCC1` (centres unmarked) [IND_CC-364, N-[6-(9-Pyridin-4-yl-3,9-diazaspiro[5.5]undecane-3-carbonyl)-2,3-dihydro-1H-inden-1-yl]-cyclohexanecarboxylic acid amide] it is 103%; for `O=C(NC1CCc2ccc(C(=O)N3CCC4(CC3)CCN(c3ccncc3)CC4)cc21)C1CC1` (centres unmarked) [IND_CC-368, N-[6-(9-Pyridin-4-yl-3,9-diazaspiro[5.5]undecane-3-carbonyl)-2,3-dihydro-1H-inden-1-yl]-cyclopropanecarboxylic acid amide] it is 87%. On the same count and under the same terms, the figure for `COc1cc(C)c(C(=O)NC2CCc3ccc(C(=O)N4CCC5(CCN(c6ccncc6)CC5)C4)cc32)c(C)c1` (centres unmarked) [Ind_CC-088, 4-methoxy-2,6-dimethyl-N-[6-(8-pyridin-4-yl-2,8-diazaspiro[4.5]decane-2-carbonyl)-2,3-dihydro-1H-inden-1-yl]-benzamide] is 93%; for `O=C(NC1CCc2ccc(C(=O)N3CCC4(CCN(Cc5ccccn5)CC4)CC3)cc21)c1c(F)cccc1Cl` (centres unmarked) [IND_CC-784, 2-Chloro-6-fluoro-N-[6-[9-(pyridin-2-yl-methyl)-3,9-diazaspiro[5.5]undecane-3-carbonyl]-2,3-dihydro-1H-inden-1-yl]-benzamide] it is 99%; for `O=C(NC1CCc2ccc(C(=O)N3CCC4(CCN(Cc5cc(F)ccc5F)CC4)CC3)cc21)c1ccccc1Cl` (centres unmarked) [IND_CC-515, 2-Chloro-N-[6-[9-[(2,5-difluoro-phenyl)-methyl]-3,9-diazaspiro[5.5]undecane-3-carbonyl]-2,3-dihydro-1H-inden-1-yl]-benzamide] it is 104%. In the case of `Cc1nn(C)c(C)c1CN1CCC2(CC1)CCN(C(=O)c1ccc3c(c1)C(NC(=O)c1ccccc1Cl)CC3)C2` (centres unmarked) [IND_CC-564, 2-Chloro-N-[6-[8-[(1,3,5-trimethyl-1H-pyrazol-4-yl)-methyl]-2,8-diazaspiro[4.5]decane-2-carbonyl]-2,3-dihydro-1H-inden-1-yl]-benzamide], the inhibition at 10 µM was 81%. Still for that read-out and setting: the figure for `O=C(NC1CCc2ccc(C(=O)N3CCC4(CCN(Cc5ccncc5)CC4)CC3)cc21)c1cc(Cl)ccc1F` (centres unmarked) [IND_CC-627, 5-Chloro-2-fluoro-N-[6-[9-(pyridin-4-yl-methyl)-3,9-diazaspiro[5.5]undecane-3-carbonyl]-2,3-dihydro-1H-inden-1-yl]-benzamide] is 54%; for `O=C(c1ccc2c(c1)C(N(C(=O)c1ccccc1Cl)C1CC1)CC2)N1CCC2(CCN(C(=O)c3ccc(F)cc3F)CC2)C1` (centres unmarked) [IND_CC-606, 2-Chloro-N-cyclopropyl-N-[6-[8-(2,4-difluoro-benzoyl)-2,8-diazaspiro[4.5]decane-2-carbonyl]-2,3-dihydro-1H-inden-1-yl]-benzamide] it is 66%. Same read-out and setting: the figure for `CC(C)CN1CCC2(CC1)CCN(C(=O)c1ccc3c(c1)C(NC(=O)c1cc(C(F)(F)F)ccc1Cl)CC3)C2` (centres unmarked) [IND_CC-687, 2-Chloro-N-[6-[8-(2-methyl-propyl)-2,8-diazaspiro[4.5]decane-2-carbonyl]-2,3-dihydro-1H-inden-1-yl]-5-(trifluoromethyl)-benzamide] is 76%.

Staying with this experiment, now noted: rat B1R.
Consider “5-Chloro-2-fluoro-N-[6-[8-[3-(3-fluorophenyl)-propyl]-2,8-diazaspiro[4.5]decane-2-carbonyl]-2,3-dihydro-1H-inden-1-yl]-benzamide [IND_CC-674]”, for which the “% Inhibition (rat B1R) at 10 μM” value was 67%. Same read-out and setting: the figure for “N,3-Dimethyl-N-[6-(9-pyridin-4-yl-3,9-diazaspiro[5.5]undecane-3-carbonyl)-2,3-dihydro-1H-inden-1-yl]-butyramide [IND_CC-408]” is 101%.
